{"source": "patent US12187717B2", "about": "“Compound and use thereof in treating autoimmune diseases” (PARENCHYMA BIOTECH INC., priority 2022, dated 2025)", "key": {"CYP1A1": {"tested_on": "CYP1A1", "experiment": "Induction of CYP1A1 mRNA expression in HepG2 (real-time PCR)", "assay_type": "cell-based, Human", "conditions": "HepG2, 1 μM, 24 hours, vs control (vehicle)", "protocol": "In order to confirm target specificity of the compounds of an embodiment of the present invention prepared as above, it was confirmed whether the expression levels of CYP1A1 mRNA and CYP1A1 protein, which are AHR target genes, were increased.\nAfter recovering HepG2 under culture in DMEM-fetal bovine serum (FBS) 10% medium and then confirming that the survival rate is 97% or more through trypan blue staining, the recovered product was centrifuged at a speed of 1200 rpm for 5 minutes at room temperature, and the cells were prepared by resuspending them in DMEM-fetal calf serum 10% medium at 3×10^5 cells/ml. Thereafter, the cells were dispensed onto a 60 mm dish by 3 ml, and each dish was treated with 50 μl of Compounds 6, 21, 32 and 39 at a concentration of 1 μM diluted in DMEM medium, and then cultured in a cell incubator (5% CO2 incubator) for 24 hours. As a control, 50 μl of 0.05% dimethylsulfoxide (DMSO)/DMEM medium was used for treatment.\nThe cultured cells were recovered to prepare an mRNA sample. […] From the separated RNA, cDNA was synthesized by reverse transcription, and the expression of CYP1A1 was confirmed through a real-time polymerase chain reaction (PCR) using iQ SYBR-Green Supermix (Bio-rad) in a CFX96 (Bio-rad) detection system. […] Herein, one (1) fold was set using the control.\nThe real-time polymerase chain reaction was performed under the conditions of 45 cycles at an annealing temperature of 58° C., wherein the following primer sequences were used."}, "[1]": {"tested_on": "colitis-associated colorectal cancer (CA-CRC)", "experiment": "AOM/DSS colorectal cancer model, preventive administration", "assay_type": "in vivo, C57BL/6 mice", "conditions": "10 mg/kg oral, 7th to 20th days (prevention)", "protocol": "AOM (Sigma Aldrich, Cat No. A5486) was diluted with physiological saline so as to be a concentration of 10 mg/kg, and then administered intraperitoneally to C57BL/6 mice (8 weeks old, female, 18±2 g) by […] for a total of 3 times at an interval of 7 days (Experiment day 0, 7, 14th). On the 7th day of the experiment, a 1.5% DSS solution prepared by dissolving 1.5% DSS in sterile distilled water was given for drinking to the mice for 7 days. Further, the 1.5% DSS solution was changed at an interval of 2 days. Sterile distilled water was provided for drinking from the 8th day of the experiment. In the compound 6 administration group according to an embodiment of the present invention, 10 mg/kg of Compound 6 per mouse was completely dissolved in an ethanol-Cremophor EL mixture corresponding to 7.5% (v/v) of the administered dose, and then, was diluted in phosphate buffered saline to prepare the final ethanol:Cremophor EL:phosphate buffered saline (0.375:0.375:9.25, v/v/v), followed by oral administration with 200 μl of the prepared solution. In order to confirm the preventive effect, Compound 6 was administered for a total of 14 times from the 7th to the 20th days of the experiment."}, "psoriasis": {"tested_on": "psoriasis", "experiment": "Imiquimod-induced psoriasis model", "assay_type": "in vivo, BALB/C mice", "conditions": "10 mg/kg oral daily, 0th to 5th days, back skin on 6th day", "protocol": "Hair on the back of female BALB/C mice (8-10 weeks old) was shaved using a shaver and shaving cream, and 62.5 mg of 5% imiquimod cream was applied daily for 6 days to the shaved skin from the next day. Vaseline cream was applied to control mice (Vehicle). In the compound 6 administration group according to an embodiment of the present invention, 10 mg/kg of the compound per mouse was completely added to an ethanol-Cremophor EL mixture (1:1, v/v) corresponding to 15% (v/v) of the administered dose, and then, was diluted in phosphate buffered saline to prepare the final ethanol:Cremophor EL:phosphate buffered saline (7.5:7.5:85, v/v/v), followed by oral administration with 200 μl of the prepared solution daily for a total of 6 times from the 0th to the 5th days of the experiment. On the 6th day of the experiment, back skin tissues of mice were obtained to perform histology and mRNA experiments."}}, "data": [{"smiles": "O=C(Cc1c[nH]c2ccc(Cl)cc12)Nc1nc2ccc(N3CCOCC3)cc2s1", "note": "[Compound 6, 2-(5-chloro-1H-indol-3-yl)-N-(6-morpholinobenzo[d]thiazol-2-yl)acetamide]", "values": [{"measurement": "CYP1A1 mRNA expression level", "setting": "CYP1A1", "result": "significantly induced"}, {"measurement": "body weight", "setting": "[1]; after 70 days", "result": "increase in the body weight similar to that of normal mice"}, {"measurement": "number of tumors", "setting": "[1]; vs control", "result": "significantly smaller"}, {"measurement": "size of tumors", "setting": "[1]; vs control", "result": "significantly smaller"}, {"measurement": "Foxp3 expression in skin lesions", "setting": "psoriasis", "result": "markedly increased"}, {"measurement": "IL-10 expression in skin lesions", "setting": "psoriasis", "result": "markedly increased"}, {"measurement": "IL-17a mRNA expression level in skin lesions", "setting": "psoriasis", "result": "significantly reduced"}, {"measurement": "S100a8 mRNA expression level in skin lesions", "setting": "psoriasis", "result": "significantly reduced"}, {"measurement": "epithelial thickness", "setting": "psoriasis", "result": "significantly reduced"}]}]}
